The values that follow come from patent US20240116985A1, “STAPLED PEPTIDES AND METHODS THEREOF” (priority 2020, published 2024).

For the assay, the target named is T1, full-length beta-Catenin (Uniprot ID P35222) (Homo sapiens, UniProt P35222).
T1 construct: 10 nM full-length beta-Catenin (Uniprot ID P35222)
T1 sequence (P35222 1-781): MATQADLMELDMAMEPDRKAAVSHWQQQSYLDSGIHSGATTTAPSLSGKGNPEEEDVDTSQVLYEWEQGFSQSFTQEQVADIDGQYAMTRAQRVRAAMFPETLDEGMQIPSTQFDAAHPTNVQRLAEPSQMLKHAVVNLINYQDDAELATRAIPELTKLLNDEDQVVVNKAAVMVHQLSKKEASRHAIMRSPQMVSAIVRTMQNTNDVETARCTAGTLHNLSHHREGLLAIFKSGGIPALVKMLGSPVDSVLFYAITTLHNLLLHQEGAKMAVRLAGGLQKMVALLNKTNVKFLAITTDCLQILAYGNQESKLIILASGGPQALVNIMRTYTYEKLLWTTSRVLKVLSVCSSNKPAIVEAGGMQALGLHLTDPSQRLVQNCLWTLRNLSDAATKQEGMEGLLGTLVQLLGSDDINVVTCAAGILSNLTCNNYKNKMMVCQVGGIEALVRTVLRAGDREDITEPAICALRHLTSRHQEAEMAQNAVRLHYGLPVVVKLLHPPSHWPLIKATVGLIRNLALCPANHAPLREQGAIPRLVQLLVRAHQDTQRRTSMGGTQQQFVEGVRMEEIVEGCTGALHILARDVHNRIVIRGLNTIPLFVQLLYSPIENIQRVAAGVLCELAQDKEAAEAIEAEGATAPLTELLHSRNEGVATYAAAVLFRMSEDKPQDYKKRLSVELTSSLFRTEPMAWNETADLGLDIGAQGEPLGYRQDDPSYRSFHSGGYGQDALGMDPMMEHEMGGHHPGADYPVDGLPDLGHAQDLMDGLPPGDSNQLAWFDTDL
Description: Fluorescence polarization IC50 (beta-catenin / 5FAM-TCF4 10-53 competition). It counts as binding. The note with it: fluorescence polarization; read-out: beta-Catenin FP IC50.

As for `CC(=O)N1CCC[C@]12CC=CCCCC1(CCCC=CCCCOC(=O)N3CC[C@@](C(=O)N[C@@H](Cc4ccsc4)C(=O)N[C@@H](Cc4csc5ccccc45)C(=O)N[C@@H](CCC(N)=O)C(N)=O)(C3)NC(=O)[C@H](CC(N)=O)NC(=O)[C@H](Cc3ccccc3)NC(=O)[C@H](C)NC(=O)[C@H](C)NC(=O)[C@H]([C@@H](C)O)NC(=O)[C@H](CC(N)=O)NC1=O)NC(=O)[C@H](C)NC(=O)[C@H](CC(=O)O)NC2=O` (stereo partly drawn) [I-2002, Ac-PL3-Asp-Ala-B5-Asn-Thr-Ala-Ala-Phe-Asn-PyrS2-3Thi-BztA-Gln-NH2], the IC50 was 612 nM. In the case of `CC(=O)N1CCC[C@]12CC=CCCCC1(CCCC=CCCCOC(=O)N3CC[C@@](C(=O)N[C@@H](Cc4ccsc4)C(=O)N[C@@H](Cc4csc5ccccc45)C(=O)N[C@@H](CCC(N)=O)C(N)=O)(C3)NC(=O)[C@H](CC(N)=O)NC(=O)[C@H](Cc3ccccc3)NC(=O)[C@H](C)NC(=O)[C@H](C)NC(=O)[C@H]([C@@H](C)O)NC(=O)[C@H](CC(N)=O)NC1=O)NC(=O)[C@H](C)NC(=O)[C@H](CC(=O)O)NC2=O` (stereo partly drawn) [I-2003, Ac-PL3-Asp-Ala-B5-Asn-Thr-Ala-Ala-Phe-Asn-PyrS2-3Thi-BztA-Gln-NH2] it was 1020 nM; in that of `CC(=O)N1CCC[C@]12CC=CCCCC1(CCCC=CCCCOC(=O)N3CC[C@@](C(=O)N[C@@H](Cc4ccsc4)C(=O)N[C@@H](Cc4csc5ccccc45)C(=O)N[C@@H](CCC(N)=O)C(N)=O)(C3)NC(=O)[C@H](CC(N)=O)NC(=O)[C@H](Cc3ccccc3)NC(=O)[C@H](C)NC(=O)[C@H](CCCCNC(C)C)NC(=O)[C@H]([C@@H](C)O)NC(=O)[C@H](CC(N)=O)NC1=O)NC(=O)[C@H](CC(C)(C)C)NC(=O)[C@H](CC(=O)O)NC2=O` (stereo partly drawn) [I-2004, Ac-PL3-Asp-Npg-B5-Asn-Thr-iPrLys-Ala-Phe-Asn-PyrS2-3Thi-BztA-Gln-NH2], 227 nM. For the molecule `CC(=O)N1CCC[C@]12CC=CCCCC1(CCCC=CCCCOC(=O)N3CC[C@@](C(=O)N[C@@H](Cc4ccsc4)C(=O)N[C@@H](Cc4csc5ccccc45)C(=O)N[C@@H](CCC(N)=O)C(N)=O)(C3)NC(=O)[C@H](CC(N)=O)NC(=O)[C@H](Cc3ccccc3)NC(=O)[C@H](C)NC(=O)[C@H](CCCCNC(C)C)NC(=O)[C@H]([C@@H](C)O)NC(=O)[C@H](CC(N)=O)NC1=O)NC(=O)[C@H](CC(C)(C)C)NC(=O)[C@H](CC(=O)O)NC2=O` (stereo partly drawn) [I-2005, Ac-PL3-Asp-Npg-B5-Asn-Thr-iPrLys-Ala-Phe-Asn-PyrS2-3Thi-BztA-Gln-NH2], the IC50 was 357 nM. For the molecule `CC(=O)N1CCC[C@]12CC=CCCCC1(CCCC=CCCCOC(=O)N3CC[C@@](C(=O)N[C@@H](Cc4ccsc4)C(=O)N[C@@H](Cc4csc5ccccc45)C(=O)N[C@@H](CCC(N)=O)C(N)=O)(C3)NC(=O)[C@H](CC(N)=O)NC(=O)[C@H](Cc3ccccc3)NC(=O)[C@H](CCCCNC(C)C)NC(=O)[C@H](C)NC(=O)[C@H]([C@@H](C)O)NC(=O)[C@H](CC(N)=O)NC1=O)NC(=O)[C@H](CC(C)(C)C)NC(=O)[C@H](CC(=O)O)NC2=O` (stereo partly drawn) [I-2006, Ac-PL3-Asp-Npg-B5-Asn-Thr-Ala-iPrLys-Phe-Asn-PyrS2-3Thi-BztA-Gln-NH2], the IC50 is 285 nM. In the case of `CC(=O)N1CCC[C@]12CC=CCCCC1(CCCC=CCCCOC(=O)N3CC[C@@](C(=O)N[C@@H](Cc4ccsc4)C(=O)N[C@@H](Cc4csc5ccccc45)C(=O)N[C@@H](CCC(N)=O)C(N)=O)(C3)NC(=O)[C@H](CC(N)=O)NC(=O)[C@H](CCc3ccccc3)NC(=O)[C@H](C)NC(=O)[C@H](C)NC(=O)[C@H]([C@@H](C)O)NC(=O)[C@H](CC(N)=O)NC1=O)NC(=O)[C@H](CC(C)(C)C)NC(=O)[C@H](CC(=O)O)NC2=O` (stereo partly drawn) [I-2008, Ac-PL3-Asp-Npg-B5-Asn-Thr-Ala-Ala-hPhe-Asn-PyrS2-3Thi-BztA-Gln-NH2] it was 8830 nM. In the case of `CC(=O)N1CCC[C@]12CC=CCCCC1(CCCC=CCCCOC(=O)N3CC[C@@](C(=O)N[C@@H](Cc4ccsc4)C(=O)N[C@@H](Cc4csc5ccccc45)C(=O)N[C@@H](CCC(N)=O)C(N)=O)(C3)NC(=O)[C@H](CC(N)=O)NC(=O)[C@H](Cc3cccc(C(F)(F)F)c3)NC(=O)[C@H](C)NC(=O)[C@H](C)NC(=O)[C@H]([C@@H](C)O)NC(=O)[C@H](CC(N)=O)NC1=O)NC(=O)[C@H](CC(C)(C)C)NC(=O)[C@H](CC(=O)O)NC2=O` (stereo partly drawn) [I-2009, Ac-PL3-Asp-Npg-B5-Asn-Thr-Ala-Ala-3F3MeF-Asn-PyrS2-3Thi-BztA-Gln-NH2] it was 1480 nM; in that of `CC(=O)N1CCC[C@]12CC=CCCCC1(CCCC=CCCCOC(=O)N3CC[C@@](C(=O)N[C@@H](Cc4ccsc4)C(=O)N[C@@H](Cc4csc5ccccc45)C(=O)N[C@@H](CCC(N)=O)C(N)=O)(C3)NC(=O)[C@H](CC(N)=O)NC(=O)[C@H](Cc3cccc(C(F)(F)F)c3)NC(=O)[C@H](C)NC(=O)[C@H](C)NC(=O)[C@H]([C@@H](C)O)NC(=O)[C@H](CC(N)=O)NC1=O)NC(=O)[C@H](CC(C)(C)C)NC(=O)[C@H](CC(=O)O)NC2=O` (stereo partly drawn) [I-2010, Ac-PL3-Asp-Npg-B5-Asn-Thr-Ala-Ala-3F3MeF-Asn-PyrS2-3Thi-BztA-Gln-NH2], 1970 nM.

In the case of `CC(=O)N1CCC[C@]12CC=CCCCC1(CCCC=CCCCOC(=O)N3CC[C@@](C(=O)N[C@@H](Cc4ccsc4)C(=O)N[C@@H](Cc4csc5ccccc45)C(=O)N[C@@H](CCC(N)=O)C(N)=O)(C3)NC(=O)[C@H](CC(N)=O)NC(=O)[C@H](Cc3cccc(Cl)c3)NC(=O)[C@H](C)NC(=O)[C@H](C)NC(=O)[C@H]([C@@H](C)O)NC(=O)[C@H](CC(N)=O)NC1=O)NC(=O)[C@H](CC(C)(C)C)NC(=O)[C@H](CC(=O)O)NC2=O` (stereo partly drawn) [I-2013, Ac-PL3-Asp-Npg-B5-Asn-Thr-Ala-Ala-3C1F-Asn-PyrS2-3Thi-BztA-Gln-NH2], the half-inhibitory concentration (IC50) is 661 nM. In the case of `CC(=O)N1CCC[C@]12CC=CCCCC1(CCCC=CCCCOC(=O)N3CC[C@@](C(=O)N[C@@H](Cc4ccsc4)C(=O)N[C@@H](Cc4csc5ccccc45)C(=O)N[C@@H](CCC(N)=O)C(N)=O)(C3)NC(=O)[C@H](CC(N)=O)NC(=O)[C@H](Cc3cccc(Cl)c3)NC(=O)[C@H](C)NC(=O)[C@H](C)NC(=O)[C@H]([C@@H](C)O)NC(=O)[C@H](CC(N)=O)NC1=O)NC(=O)[C@H](CC(C)(C)C)NC(=O)[C@H](CC(=O)O)NC2=O` (stereo partly drawn) [I-2014, Ac-PL3-Asp-Npg-B5-Asn-Thr-Ala-Ala-3C1F-Asn-PyrS2-3Thi-BztA-Gln-NH2], the 50% inhibitory concentration (IC50) is 1180 nM. In the case of `CC(=O)N1CCC[C@]12CC=CCCCC1(CCCC=CCCCOC(=O)N3CC[C@@](C(=O)N[C@@H](Cc4ccsc4)C(=O)N[C@@H](Cc4csc5ccccc45)C(=O)N[C@@H](CCC(N)=O)C(N)=O)(C3)NC(=O)[C@H](CC(N)=O)NC(=O)[C@H](Cc3ccc(O)cc3)NC(=O)[C@H](C)NC(=O)[C@H](C)NC(=O)[C@H]([C@@H](C)O)NC(=O)[C@H](CC(N)=O)NC1=O)NC(=O)[C@H](CC(C)(C)C)NC(=O)[C@H](CC(=O)O)NC2=O` (stereo partly drawn) [I-2015, Ac-PL3-Asp-Npg-B5-Asn-Thr-Ala-Ala-Tyr-Asn-PyrS2-3Thi-BztA-Gln-NH2] it was 522 nM; in that of `CC(=O)N1CCC[C@]12CC=CCCCC1(CCCC=CCCCOC(=O)N3CC[C@@](C(=O)N[C@@H](Cc4ccsc4)C(=O)N[C@@H](Cc4csc5ccccc45)C(=O)N[C@@H](CCC(N)=O)C(N)=O)(C3)NC(=O)[C@H](CC(N)=O)NC(=O)[C@H](Cc3ccc(O)cc3)NC(=O)[C@H](C)NC(=O)[C@H](C)NC(=O)[C@H]([C@@H](C)O)NC(=O)[C@H](CC(N)=O)NC1=O)NC(=O)[C@H](CC(C)(C)C)NC(=O)[C@H](CC(=O)O)NC2=O` (stereo partly drawn) [I-2016, Ac-PL3-Asp-Npg-B5-Asn-Thr-Ala-Ala-Tyr-Asn-PyrS2-3Thi-BztA-Gln-NH2], 703 nM.

A word on the IC50: it is the concentration that gives 50% inhibition.
